Read-outs that look alike come from different tables or passages of the source. Ends that are not written are not given here. * marks the point of attachment. 125I = [125I]*
What was measured:
human PMNs [1] = assay: Human PMN chemotaxis; conditions: n = 3
[2] = tested on: recombinant ALXR/FPRL1 (CHO-Gqo-ALXR cells); assay: Chemotaxis of CHO cells expressing ALXR and Gqo chimera; conditions: ATLa1 100 nM, Ac2-26 100 μM; 4 h, 37 °C; n = 3
[3] = tested on: Zymosan A-driven PMN infiltration; assay: Zymosan A-initiated PMN infiltration, 6-day-old murine air pouch; conditions: 4 h; for inhibition of Zymosan A-driven PMN infiltration: mean, n = 8
15-epi-LXA4 = 15-epi-LXA4 generation in murine air-pouch exudates; format: in vivo, Swiss Albino mice; conditions: ASA 300 μg; 4 and 16 h; n = 8
[4] = tested on: human LTB4 receptor (BLT1); conditions: BLT1-transfected HEK293 cells; cited from earlier work
recombinant ALXR/FPRL1 = biological target: T1, recombinant ALXR/FPRL1 (Homo sapiens, UniProt P25090); conditions: HEK293-ALXR, 30 nM [^125I-Tyr]Ac2-26, 40 min, 4 °C; duplicates, n = 3
T1 sequence (P25090 1-351): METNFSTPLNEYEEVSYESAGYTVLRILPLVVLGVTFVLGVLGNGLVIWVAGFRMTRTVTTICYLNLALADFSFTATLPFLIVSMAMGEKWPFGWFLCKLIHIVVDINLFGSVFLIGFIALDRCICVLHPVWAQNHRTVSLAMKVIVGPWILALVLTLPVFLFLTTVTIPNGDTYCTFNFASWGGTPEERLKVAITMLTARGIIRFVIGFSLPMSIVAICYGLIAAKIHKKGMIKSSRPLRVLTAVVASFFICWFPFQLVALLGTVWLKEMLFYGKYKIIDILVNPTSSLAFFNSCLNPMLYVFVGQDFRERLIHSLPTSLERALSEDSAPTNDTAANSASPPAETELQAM

monocytes/macrophages = conditions: nonphlogistic; cited from earlier work
human PMNs (ALXR/FPRL1) = biological target: T2, human PMNs (ALXR/FPRL1) (Homo sapiens, UniProt P25090); assay: [^125I-Tyr]Ac2-26 binding, isolated human PMNs in suspension; conditions: 30 nM [^125I-Tyr]Ac2-26, 40 min, 4 °C, duplicates, n = 3
T2 sequence (P25090 1-351): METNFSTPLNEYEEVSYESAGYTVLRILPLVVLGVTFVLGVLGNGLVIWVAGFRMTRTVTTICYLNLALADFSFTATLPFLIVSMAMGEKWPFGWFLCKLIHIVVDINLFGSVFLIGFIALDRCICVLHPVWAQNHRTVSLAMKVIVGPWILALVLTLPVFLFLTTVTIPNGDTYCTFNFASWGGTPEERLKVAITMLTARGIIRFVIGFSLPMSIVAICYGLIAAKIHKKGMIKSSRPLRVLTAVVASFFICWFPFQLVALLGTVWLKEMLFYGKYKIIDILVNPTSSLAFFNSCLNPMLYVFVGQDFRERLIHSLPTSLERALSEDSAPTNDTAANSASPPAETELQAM

[5] = biological target: T3, adherent human PMNs (ALXR/FPRL1) (Homo sapiens, UniProt P25090); assay: [^125I-Tyr]Ac2-26 binding, adherent human PMNs; conditions: 30 nM [^125I-Tyr]Ac2-26, duplicates, n = 3
T3 sequence (P25090 1-351): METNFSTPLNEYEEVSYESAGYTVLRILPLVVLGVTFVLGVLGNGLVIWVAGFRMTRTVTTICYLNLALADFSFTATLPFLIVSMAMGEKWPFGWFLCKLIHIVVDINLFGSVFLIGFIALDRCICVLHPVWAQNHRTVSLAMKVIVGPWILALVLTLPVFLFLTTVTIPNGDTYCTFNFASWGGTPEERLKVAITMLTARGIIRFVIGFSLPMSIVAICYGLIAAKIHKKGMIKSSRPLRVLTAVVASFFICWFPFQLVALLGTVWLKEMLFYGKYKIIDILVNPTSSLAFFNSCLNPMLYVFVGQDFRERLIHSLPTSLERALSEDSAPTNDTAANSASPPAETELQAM

human PMNs [6] = assay: Ca^2+ mobilization in Fura2-AM-loaded human PMNs
[7] = tested on: PMN transmigration and adhesion; conditions: cited from earlier work
[8] = tested on: formyl peptide receptors (FPRs); conditions: partially diminished; cited from earlier work
ALXR/FPRL1 [9] = assay: ANXA1/ALXR co-immunoprecipitation, human PMNs; format: binding; conditions: non-adherent human PMNs (control)
[10] = tested on: PMN transmigration and phagocytosis; conditions: in vitro and in vivo; cited from earlier work
ANXA1 = ANXA1 generation in murine air-pouch exudates; format: in vivo, Swiss Albino mice; conditions: 4 h versus 16 h; n = 8
human ALXR (ALXR/FPRL1) = biological target: T4, human ALXR (ALXR/FPRL1) (Homo sapiens, UniProt P25090); conditions: at much higher concentrations than LXA4; cited from earlier work
T4 sequence (P25090 1-351): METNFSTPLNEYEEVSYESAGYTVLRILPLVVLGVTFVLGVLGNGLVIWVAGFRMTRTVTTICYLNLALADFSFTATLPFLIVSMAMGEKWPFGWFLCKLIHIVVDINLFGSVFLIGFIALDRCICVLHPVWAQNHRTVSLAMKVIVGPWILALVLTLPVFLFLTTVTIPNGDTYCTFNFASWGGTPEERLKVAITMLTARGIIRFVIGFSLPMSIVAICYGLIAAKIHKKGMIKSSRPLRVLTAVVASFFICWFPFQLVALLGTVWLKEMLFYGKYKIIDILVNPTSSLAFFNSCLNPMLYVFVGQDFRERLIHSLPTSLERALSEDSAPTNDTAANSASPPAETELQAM

[11] = tested on: human PMN oxidative burst; conditions: cited from earlier work
ALXR/FPRL1 [12] = conditions: cited from earlier work
[13] = biological target: T5, human recombinant lipoxin A4 receptor (ALXR/FPRL1) expressed on HEK293 cells (human, UniProt P25090 1-351); assay: radioligand binding
T5 sequence (looked up): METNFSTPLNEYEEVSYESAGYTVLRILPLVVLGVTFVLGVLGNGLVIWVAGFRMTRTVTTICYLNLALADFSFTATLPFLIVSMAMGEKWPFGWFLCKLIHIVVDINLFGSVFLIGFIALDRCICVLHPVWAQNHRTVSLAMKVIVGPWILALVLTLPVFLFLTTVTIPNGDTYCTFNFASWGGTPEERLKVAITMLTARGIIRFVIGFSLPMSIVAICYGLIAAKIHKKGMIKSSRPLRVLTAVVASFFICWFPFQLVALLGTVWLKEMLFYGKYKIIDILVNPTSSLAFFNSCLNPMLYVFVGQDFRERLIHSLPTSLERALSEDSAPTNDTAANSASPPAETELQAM

[14] = biological target: T5, human recombinant lipoxin A4 receptor …; assay: radioligand binding; remark: listed apart in the source

CCCCCC(C)(O)/C=C/C=C\C=C\C=C\[C@@H](O)[C@@H](O)CCCC(=O)O (mixture of isomers) [ATLa1, 15(R/S)-methyl-LXA4]
block of Ac2-26-evoked chemotaxis, human PMNs (human PMNs [1]; ATLa1 10 or 100 nM, 30 min, 37 °C, Ac2-26 1–10 μM): clearly blocked Ac2-26 evoked chemotaxis | chemotactic activity, human PMNs (human PMNs [1]; Ac2-26 1–10 μM or ATLa1 alone 10–100 nM): did not evoke chemotaxis | chemotaxis responses, CHO-Gqo-ALXR cells [2]: clear chemotaxis responses

CC(=O)Oc1ccccc1C(=O)O [ASA, Aspirin, reference compound]
inhibition of Zymosan A-driven PMN infiltration ([3]; ASA alone 1 mg into pouch 15 min before Zymosan A (1 mg)): 36% | 15-epi-LXA4 (ATL) generation in ASA-treated animals (15-epi-LXA4): generated and present in ASA-treated animals at 4 hours that diminished by 16 hours

O=C(O)CCC[C@H](O)[C@H](O)/C=C/C=C/C=C\C=C\[C@@H](O)COc1ccc(F)cc1 [ATLa, 15-epi-16-(para-fluoro)-phenoxy-LXA4]
inhibition of PMN infiltration, i.v. ATLa 5 μg ([3]; 5 μg per mouse (~12 nmol) i.v. 15 min before Zymosan A, n = 6–8): ~ 40% | inhibition of PMN infiltration, administered (in words) ([3]; ATLa 0.5–5 μg, Ac2-26 5–100 μg i.v., n = 6–8): potent inhibitors of PMN infiltration

C[C@@H]1C[C@H]2[C@@H]3CCC4=CC(=O)C=C[C@]4(C)[C@@]3(F)[C@@H](O)C[C@]2(C)[C@@]1(O)C(=O)CO [DEX, dexamethasone, reference compound]
inhibition of Zymosan A-driven PMN infiltration ([3]; DEX alone 10 μg into pouch 15 min before Zymosan A (1 mg)): 53%

CCCCC[C@H](O)/C=C/C=C\C=C\C=C\[C@@H](O)[C@@H](O)CCCC(=O)O [LXA4, lipoxin A4, reference compound]
competition for [^3H]LTB4 binding [4]: neither LXA4 (ref. [18]) nor Ac2-26 peptide competed | competition for specific [^125I-Tyr]Ac2-26 binding (in words) (recombinant ALXR/FPRL1): specifically competed | enhanced uptake of apoptotic neutrophils by monocytes/macrophages (monocytes/macrophages): enhance the uptake of apoptotic neutrophils | competition for [^125I-Tyr]Ac2-26 binding to human PMN (in words) (human PMNs (ALXR/FPRL1); suspension): competed for [^125I-Tyr]Ac2-26 peptide binding to human PMN | competition for specific [^125I-Tyr]Ac2-26 binding, adherent PMNs (in words) [5]: retained their ability to compete

O=c1c(-c2ccc(O)cc2)coc2cc(O)cc(O)c12 [genistein, reference compound]
block of Ac2-26 calcium mobilization response (human PMNs [6]; Supplementary Fig. B, panel c): partially blocked | modulation of LXA4-regulated PMN transmigration and adhesion [7]: modulates LXA4-regulated PMN transmigration and adhesion

Ac2-6: ANXA1-derived peptide (Ac-AMVSE; UniProt P04083 2-6, looked up, fragment)
inhibition of PMN infiltration, i.v. peptides (in words) ([3]; i.v. tail vein 15 min prior to 1 mg Zymosan A, 6–12 mice): inhibited PMN infiltration in a dose-dependent fashion

B1: ANXA1: protein of 346 amino acids and a member of the annexin superfamily, highly abundant PMN-derived protein induced by glucocorticoids (protein, UniProt P04083 2-346, looked up)
Annexin A1: AMVSEFLKQAWFIENEEQEYVQTVKSSKGGPGSAVSPYPTFNPSSDVAALHKAIMVKGVDEATIIDILTKRNNAQRQQIKAAYLQETGKPLDETLKKALTGHLEEVVLALLKTPAQFDADELRAAMKGLGTDEDTLIEILASRTNKEIRDINRVYREELKRDLAKDITSDTSGDFRNALLSLAKGDRSEDFGVNEDLADSDARALYEAGERRKGTDVNVFNTILTTRSYPQLRRVFQKYTKYSKHDMNKVLDLELKGDIEKCLTAIVKCATSKPAFFAEKLHQAMKGVGTRHKALIRIMVSRSEIDMNDIKAFYQKMYGISLCQAILDETKGDYEKILVALCGGN
reduction of ANXA1 interactions with circulating leukocytes or peritoneal macrophages in FPR-deficient mice [8]: ~ 40% | co-immunoprecipitation of ANXA1 with ALXR/FPRL1, non-adherent PMNs (ALXR/FPRL1 [9]): not co-immunoprecipitated | inhibition of PMN transmigration and phagocytosis [10]: potent inhibitors of PMN transmigration and phagocytosis | competition for specific [^125I-Tyr]Ac2-26 binding (in words) (recombinant ALXR/FPRL1): competed for [^125I-Tyr]Ac2-26 binding with similar affinity | ANXA1 generation in exudates (ANXA1): low at 4 hours and much higher at 16 hours

B2: hrANXA1: human recombinant annexin 1 (protein)
chain: MAMVSEFLKQAWFIENEEQEYVQTVKSSKGGPGSAVSPYPTFNPSSDVAALHKAIMVKGVDEATIIDILTKRNNAQRQQIKAAYLQETGKPLDETLKKALTGHLEEVVLALLKTPAQFDADELRAAMKGLGTDEDTLIEILASRTNKEIRDINRVYREELKRDLAKDITSDTSGDFRNALLSLAKGDRSEDFGVNEDLADSDARALYEAGERRKGTDVNVFNTILTTRSYPQLRRVFQKYTKYSKHDMNKVLDLELKGDIEKCLTAIVKCATSKPAFFAEKLHQAMKGVGTRHKALIRIMVSRSEIDMNDIKAFYQKMYGISLCQAILDETKGDYEKILVALCGGN
effect on cellular response to subsequent fMLP (in words) (human PMNs [6]; Ac2-26 10 μM, hrANXA1 0.5 μM): did not affect the cellular response

B3: SAA: a proteolytic product of the acute phase response (protein, UniProt P0DJI8 19-122, looked up)
Serum amyloid A-1 protein: RSFFSFLGEAFDGARDMWRAYSDMREANYIGSDKYFHARGNYDAAKRGPGGAWAAEVITDARENIQRFFGHGAEDSLADQAANEWGRSGKDPNHFRPAGLPEKY
competition for specific [^3H]LXA4 binding (in words) (human ALXR (ALXR/FPRL1)): competes for specific [^3H]LXA4 binding | inhibition of human PMN oxidative burst [11]: inhibits human PMN oxidative burst | IC50 (human PMNs (ALXR/FPRL1); read-out: apparent IC50, competition for specific [^125I-Tyr]Ac2-26 binding, human PMNs in suspension): ~1000 nM | activation of HEK293 cells expressing ALXR/FPRL1 (ALXR/FPRL1 [12]): activates HEK293 cells expressing ALXR/FPRL1 | competition for specific [^125I-Tyr]Ac2-26 binding, adherent PMNs (in words) [5]: retained their ability to compete

Ac-AMVSEFLKQAWFIENEEQEYVQTVK [ANXA1-derived peptide Ac2-26 (unlabelled)]
IC50 [13]: ~300 nM

Ac-AMVSEFLKQAW [ANXA1-derived peptide Ac2-12]
IC50 [13]: ~300 nM | IC50 [14]: ~20000 nM

Ac-AMVSEFLKQAWFIENEEQEY(125I)VQTVK [[125I-Tyr]Ac2-26 peptide (radio-iodinated ANXA1-derived peptide Ac2-26)]
Kd [14]: ~900 nM
